Laboratory results published in US11518764B2, “Substituted heteroaryls as inhibitors of the BCL6 BTB domain protein-protein interaction” (Ontario Institute for Cancer Research (OICR), priority 2018, dated 2022).

Columns and labels:
[1] = tested on: BCL6 reporter construct (3xBCL6-TK-Luc) in SuDHL4 cells; test: Cell-based luciferase assay; conditions: Homo sapiens, SU-DHL-4, 48 h, read-out: Luciferase-Assay EC50, uM), SuDHL4-3xBCL6-TK-Luc cells, two days, high dose 10 uM
Outline: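 SuDHL4 cells stably carrying a 3×BCL6-site TK-promoter firefly luciferase reporter, seeded at 15,000 cells/well, were dosed over a 10-point range (top 10 uM) and grown two days at 37 °C, 5% CO2. Luminescence then read after adding neolite reagent at room temperature.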

Karpas422 cells = test: Tumor cell growth inhibition assay; format: cell-based; conditions: Homo sapiens, KARPAS-422, 144 h, read-out: Tumor Growth Inhibition in Karpas-422 (IC50, uM), Karpas422 cells, six days, ATPlite
Outline: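 Karpas422 cells (2,000/well) in Alpha-MEM with 10% FBS dosed across 10 concentrations (top 5 uM) and grown six days at 37° C., 5% CO2. Viability read as ATPlite luminescence.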

BCL6 BTB domain = BCL6 BTB domain (Homo sapiens (Human), UniProt P41182); test: Surface plasmon resonance (SPR) assay; format: binding; conditions: BCL6 BTB domain captured on SA chip, single cycle kinetics

Structure (SMILES)	EC50 [1]	IC50 (Karpas422 cells)	Kd (BCL6 BTB domain)
Cn1cnc2c(c(-c3cc(C(N)=O)c(O)c(F)c3F)cn2CC(=O)Nc2cc(N3CC4CC3CN4CC(F)(F)F)ncc2Cl)c1=O (stereo not drawn) [Compound I-363]	0.931 µM	1.19 µM	59.3 nM
CO[C@H]1CN(c2cc(NC(=O)Cn3cc(-c4cc(C(N)=O)c(O)c(F)c4F)c4c(=O)n(C)cnc43)c(Cl)cn2)C[C@H]1F [Compound I-364]	0.819 µM	1.04 µM	25 nM
CO[C@@H]1CN(c2cc(NC(=O)Cn3cc(-c4cc(Cl)c(O)c(C(N)=O)c4)c4c(=O)n(C)cnc43)c(Cl)cn2)C[C@@H]1F [Compound I-365]	0.281 µM	0.462 µM	17.4 nM
CO[C@@H]1CN(c2cc(NC(=O)Cn3cc(-c4cc(C(N)=O)c(O)c(F)c4F)c4c(=O)n(C)cnc43)c(Cl)cn2)C[C@@H]1F [Compound I-366]	0.899 µM	0.978 µM	35.2 nM
CN1CC2CC1CN2c1cc(NC(=O)Cn2cc(-c3cc(Cl)c(O)c(C(N)=O)c3)c3c(=O)n(C)cnc32)c(Cl)cn1 (stereo not drawn) [Compound I-367]	5.3 µM	3.49 µM	41.9 nM
C[C@H]1CN(C)CCN1c1cc(NC(=O)Cn2cc(-c3cc(Cl)c(O)c(C(N)=O)c3)c3c(=O)n(C)c(C(F)(F)F)nc32)c(Cl)c(F)n1 [Compound I-368]	0.369 µM	0.407 µM	83.5 nM
CN1C(C)(C)CN(c2cc(NC(=O)Cn3cc(-c4cc(C(N)=O)c(O)c(F)c4F)c4c(=O)n(C)cnc43)c(Cl)cn2)CC1(C)C [Compound I-369]	2.2 µM	2.8 µM	159 nM
C[C@H]1CN(C2COC2)CCN1c1cc(NC(=O)Cn2cc(-c3cc(Cl)c(O)c(C(N)=O)c3)c3c(=O)n(C)c(C(F)(F)F)nc32)c(Cl)cn1 [Compound I-371]	0.141 µM	0.288 µM	39.5 nM
C[C@H]1CN(C2COC2)CCN1c1cc(NC(=O)Cn2cc(-c3cc(F)c(O)c(C(N)=O)c3)c3c(=O)n(C)cnc32)c(Cl)cn1 [Compound I-372]	0.233 µM	0.267 µM	7.41 nM
Cc1nc2c(c(-c3cc(Cl)c(O)c(C(N)=O)c3)cn2CC(=O)Nc2cc(N3CCN(C)C[C@@H]3C)nc(F)c2Cl)c(=O)n1C [Compound I-373]	0.0803 µM	0.105 µM	5.96 nM
COCCN1CCN(c2cc(NC(=O)Cn3cc(-c4cc(C(N)=O)c(O)c5c4OCO5)c4c(=O)n(C)cnc43)c(Cl)c(F)n2)[C@@H](C)C1 [Compound I-375]	0.0114 µM	0.0256 µM	1.31 nM
CCN1CCN(c2cc(NC(=O)Cn3cc(-c4cc(Cl)c(O)c(C(N)=O)c4)c4c(=O)n(C)c(C(F)(F)F)nc43)c(Cl)cn2)[C@@H](C)C1 [Compound I-376]	0.385 µM	0.366 µM	73.4 nM
C[C@H]1CN(CC2(C(F)(F)F)CC2)CCN1c1cc(NC(=O)Cn2cc(-c3cc(C(N)=O)c(O)c(F)c3F)c3c(=O)n(C)cnc32)c(Cl)cn1 [Compound I-377]	2.97 µM	8.61 µM	208 nM
Cc1nc2c(c(-c3cc(C(N)=O)c(O)c(F)c3F)cn2CC(=O)Nc2cc(N3CCN(C)C[C@@H]3C(C)C)ncc2Cl)c(=O)n1C [Compound I-378]	0.944 µM	1.22 µM	118 nM
Cc1nc2c(c(-c3cc(C(N)=O)c(O)c(F)c3F)cn2CC(=O)Nc2cc(N3CCN(C4CC4)C[C@@H]3C)ncc2Cl)c(=O)n1C [Compound I-379]	0.664 µM	0.853 µM	68.6 nM
Cc1nc2c(c(-c3cc(C(N)=O)c(O)c(F)c3F)cn2CC(=O)Nc2cc(N3CCN(C(C)C)C[C@@H]3C)ncc2Cl)c(=O)n1C [Compound I-380]	0.59 µM	0.478 µM	56 nM
COc1ncc(Cl)c(NC(=O)Cn2cc(-c3cc(C(N)=O)c(O)c(F)c3F)c3c(=O)n(C)c(C)nc32)c1F [Compound I-381]	10 µM	10 µM	240 nM
COc1ncc(Cl)c(NC(=O)Cn2cc(-c3cc(Cl)c(O)c(C(N)=O)c3)c3c(=O)n(C)c(C)nc32)c1F [Compound I-382]	3.1 µM	10 µM	342 nM
Cn1cnc2c(c(-c3cc(Cl)c(O)c(C(N)=O)c3)cn2CC(=O)Nc2ccc(F)cc2Cl)c1=O [Compound I-383]	2.44 µM	1.05 µM	460 nM
Cn1cnc2c(c(-c3cc(Cl)c(O)c(C(N)=O)c3)cn2CC(=O)Nc2ccc(C#N)cc2Cl)c1=O [Compound I-384]	1.18 µM	0.8 µM	115 nM
Cn1cnc2c(c(-c3cc(Cl)c(O)c(C(N)=O)c3)cn2CC(=O)Nc2ccc([N+](=O)[O-])cc2Cl)c1=O [Compound I-385]	0.312 µM	0.335 µM	38.4 nM

Structure (SMILES)	EC50 [1]	IC50 (Karpas422 cells)	Kd (BCL6 BTB domain)
CO[C@@H]1CN(c2cc(NC(=O)Cn3cc(-c4cc(Cl)c(O)c(C(N)=O)c4)c4c(=O)n(C)c(C(F)(F)F)nc43)c(Cl)cn2)C[C@@H]1F [Compound I-386]	1.01 µM	0.772 µM	153 nM
CO[C@H]1CN(c2cc(NC(=O)Cn3cc(-c4cc(Cl)c(O)c(C(N)=O)c4)c4c(=O)n(C)c(C(F)(F)F)nc43)c(Cl)cn2)C[C@H]1F [Compound I-387]	1.12 µM	1.04 µM	189 nM
CO[C@@H]1CN(c2cc(NC(=O)Cn3cc(-c4cc(Cl)c(O)c(C(N)=O)c4)c4c(=O)n(C)c(C(F)(F)F)nc43)c(Cl)c(F)n2)C[C@@H]1F [Compound I-388]	1.51 µM	0.394 µM	528 nM
CO[C@H]1CN(c2cc(NC(=O)Cn3cc(-c4cc(Cl)c(O)c(C(N)=O)c4)c4c(=O)n(C)c(C(F)(F)F)nc43)c(Cl)c(F)n2)C[C@H]1F [Compound I-389]	2.01 µM	1.46 µM	286 nM
CCN1CCN(c2cc(NC(=O)Cn3cc(-c4cc(F)c(O)c(C(N)=O)c4)c4c(=O)n(C)cnc43)c(Cl)cn2)[C@@H](C)C1 [Compound I-390]	0.0677 µM	0.0483 µM	6.18 nM
CC(C1CC1)N1CCN(c2cc(NC(=O)Cn3cc(-c4cc(F)c(O)c(C(N)=O)c4)c4c(=O)n(C)cnc43)c(Cl)cn2)[C@@H](C)C1 (stereo partly drawn) [Compound I-391]	0.0672 µM	0.0726 µM	7.26 nM
CC(C1CC1)N1CCN(c2cc(NC(=O)Cn3cc(-c4cc(Cl)c(O)c(C(N)=O)c4)c4c(=O)n(C)cnc43)c(Cl)cn2)[C@@H](C)C1 (stereo partly drawn) [Compound I-392]	0.178 µM	0.072 µM	15.5 nM
CC(C1CC1)N1CCN(c2cc(NC(=O)Cn3cc(-c4cc(C(N)=O)c(O)c(F)c4F)c4c(=O)n(C)cnc43)c(Cl)cn2)[C@@H](C)C1 (stereo partly drawn) [Compound I-393]	0.266 µM	0.222 µM	33.6 nM
CCCN1CCN(c2cc(NC(=O)Cn3cc(-c4cc(C(N)=O)c(O)c(F)c4F)c4c(=O)n(C)cnc43)c(Cl)cn2)[C@@H](C)C1 [Compound I-394]	0.313 µM	0.269 µM	38.4 nM
CN1CCOC2CN(c3cc(NC(=O)Cn4cc(-c5cc(Cl)c(O)c(C(N)=O)c5)c5c(=O)n(C)c(C(F)(F)F)nc54)c(Cl)cn3)CC21 (stereo not drawn) [Compound I-395]	0.168 µM	0.669 µM	48.3 nM
CN1CC2CCC(C1)N2c1cc(NC(=O)Cn2cc(-c3cc(Cl)c(O)c(C(N)=O)c3)c3c(=O)n(C)c(C(F)(F)F)nc32)c(Cl)cn1 [Compound I-396]	0.683 µM	0.749 µM	226 nM
C[C@H]1COCCN1c1cc(NC(=O)Cn2cc(-c3cc(C(N)=O)c(O)c(F)c3F)c3c(=O)n(C)cnc32)c(F)cn1 [Compound I-397]	3.31 µM	2.54 µM	98.3 nM
COc1ccc(Cl)c(NC(=O)Cn2cc(-c3cc(Cl)c(O)c(C(N)=O)c3)c3c(=O)n(C)cnc32)c1 [Compound I-398]	2.6 µM	1.3 µM	82.7 nM
CO[C@@H]1CN(c2cc(NC(=O)Cn3cc(-c4cc(Cl)c(O)c(C(N)=O)c4)c4c(=O)n(C)c(C)nc43)c(Cl)c(F)n2)C[C@@H]1F [Compound I-399]	0.268 µM	0.535 µM	30.7 nM
CO[C@H]1CN(c2cc(NC(=O)Cn3cc(-c4cc(Cl)c(O)c(C(N)=O)c4)c4c(=O)n(C)c(C)nc43)c(Cl)c(F)n2)C[C@H]1F [Compound I-400]	0.204 µM	0.408 µM	27.8 nM
CO[C@H]1CN(c2cc(NC(=O)Cn3cc(-c4cc(Cl)c(O)c(C(N)=O)c4)c4c(=O)n(C)c(C)nc43)c(Cl)cn2)C[C@H]1F [Compound I-401]	0.427 µM	1.22 µM	28.9 nM
CO[C@@H]1CN(c2cc(NC(=O)Cn3cc(-c4cc(Cl)c(O)c(C(N)=O)c4)c4c(=O)n(C)c(C)nc43)c(Cl)cn2)C[C@@H]1F [Compound I-402]	0.18 µM	0.714 µM	28 nM
CN1CCOC2(CCN(c3cc(NC(=O)Cn4cc(-c5cc(C(N)=O)c(O)c(F)c5F)c5c(=O)n(C)cnc54)c(Cl)cn3)C2)C1 (stereo not drawn) [Compound I-403]	5.54 µM	3.32 µM	81.9 nM
Cn1cnc2c(c(-c3cc(C(N)=O)c(O)c(F)c3F)cn2CC(=O)Nc2cc(N3CCOCC3)ncc2F)c1=O [Compound I-404]	4.06 µM	10 µM	106 nM
C[C@H]1CN(Cc2ccco2)CCN1c1cc(NC(=O)Cn2cc(-c3cc(C(N)=O)c(O)c(F)c3F)c3c(=O)n(C)cnc32)c(Cl)cn1 [Compound I-405]	0.459 µM	0.254 µM	32.6 nM
